Experiment [1] deals with IL-17A-induced G-CSF production in human normal keratinocytes (NHK). Description: NHK Assay: IL-17A-induced G-CSF production in human normal keratinocytes. The format is cell-based. To be noted: IL-17A 5 ng/mL, 24 h, 5% FBS, simple average if tested more than once. How it is done: IL-17A acts directly on keratinocytes through binding to dimeric receptor IL-17RA/RC and drives the production of a number of inflammatory mediators known to be elevated in psoriasis lesional tissue. IL-17A small molecule inhibitors that block the IL-17A to interact with IL-17R would inhibit the IL-17A signaling in its targeted cells such as keratinocytes. The compound functional activity is evaluated for its impact on IL-17A-induced G-CSF production in human normal keratinocytes (NHK).
Adult normal human keratinocytes are cultured in keratinocyte growth medium (Lonza) in a flask till reaching ˜ 90% confluence, then cells are transferred to a 384-well plate at density of 3000-4000 cell/well. Recombinant human IL-17A (Gibco PHC9174) is pre-incubated with titrated compound or DMSO for 1 h at rt then added to the cell culture plate. The final concentration of IL-17A is 5 ng/mL and DMSO is 0.2%, in the culture containing 5% FBS. Cells are cultured/treated for 24 h at 37° C. Supernatants are collected and G-CSF production is measured through HTRF technology using Human G-CSF Kit (CisBio). G-CSF concentration was extrapolated from the standard curve and IC50 is determined using GraphPad Prism. Cell viability is also evaluated using CellTiter-Glo kit (Promega) and effect of compound on cell viability is compared to DMSO control.

Experiment [2] concerns the target IL-17A(FLAG-Tagged): IL-17RA(His-Tagged) (Homo sapiens, UniProt Q16552, K93Q). Description: IL-17A(FLAG-Tagged): IL-17RA(His-Tagged) Binding Disruption Eu-HTRF Assay. The settings on record: disruption of IL-17A/IL-17RA binding; simple average if tested more than once. The text has this:
IL-17A(FLAG-Tagged): IL-17RA(His-Tagged) Binding Disruption Eu-HTRF Assay
An antibody directed against the FLAG tag of IL-17A (SEQ ID NO: 1) is labeled with the HTRF donor chromophore (Europium-cryptate). IL-17A is present as a dimer that is “locked into” this quaternary structure due to the formation of loop-spanning […] disulfide bridges. The construct of IL-17RA used in the assay excludes the […] portion of the receptor and is fused to a C-terminal 10×His tag (SEQ ID NO:2). An antibody directed against the His tag of the IL-17RA chimera is labeled with the HTRF acceptor chromophore (“D2”). The fluorescence-resonance energy transfer (FRET) depends on the vicinity of the donor chromophore to the acceptor, and interruption of the binding between the IL-17A and IL-17RA causes the reduction/loss of FRET. Therefore, this assay allows to evaluate the compound effect on the binding IL-17A and IL-17RA by monitoring the fluorescence intensity of donor vs acceptor. The assay is run as described below.
40 nL of 2-fold serial diluted compound solution for total 22 dilution points is added into each well of a 1536-well, white, low-volume, non-binding plate (Greiner #782904), then 2 μL of FLAG tagged IL-17A at 2× final concentration (2.5 nM) in solution of PBS+0.01% Triton-X100 is added to each well. The assay plate is briefly centrifuged then incubated for 1 h at rt. A mixed solution is prepared containing 2×5 nM 10HIS×IL-17RA, 2×2.5 nM Eu-anti-FLAG (CISBIO), 2×5 nM D2-anti-HIS (CISBIO) in PBS+0.01% Triton-X100+200 mM Potassium Fluoride (Sigma 60238) and 2 μL of mix is added to each well of the assay plate. The plate is briefly centrifuged then incubated for 2 h at rt. The HTRF intensities at the wavelength of donor (620 nm) and acceptor (665 nm) are measured using BMG Pherastar. The ratio between intensities at two wavelengths is calculated and plotted against the compound concentration and the data is fitted to a one-site competition model to yield IC50 of the compound.
Background: In TR-FRET formats the signal depends on donor and acceptor labels being close together.

Sequence of UniProt Q16552 (Q16552 with tags, fused parts or gaps K93Q): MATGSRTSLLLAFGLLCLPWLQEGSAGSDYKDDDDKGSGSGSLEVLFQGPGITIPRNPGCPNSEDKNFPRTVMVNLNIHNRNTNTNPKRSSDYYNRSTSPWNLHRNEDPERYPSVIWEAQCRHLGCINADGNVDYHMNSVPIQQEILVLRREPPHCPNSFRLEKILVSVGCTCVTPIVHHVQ

As for `CC(CC(=O)N[C@@H](c1ccn2cc([C@@H](NC(=O)c3ncnn3CC3CC3)C3CCC(F)(F)CC3)nc2n1)C1CC1)C(F)(F)F` (single isomer, unassigned) [Example 19, N—((S)-(7-((R)-Cyclopropyl((S*)-4,4,4-trifluoro-3-methylbutanamido)methyl)imidazo[1,2-a]pyrimidin-2-yl)(4,4-difluorocyclohexyl)methyl)-1-(cyclopropylmethyl)-1H-1,2,4-triazole-5-carboxamide], the results for the IC50 in experiment [1] and in experiment [2] were 1200 nM and 260 nM, respectively.
In the case of `Cc1nonc1C(=O)N[C@H](c1cn2ccc([C@H](NC(=O)CCC(F)(F)F)C3CC3)nc2n1)C1CCC(F)(F)CC1` [Example 23, N—((S)-(7-((R)-Cyclopropyl(4,4,4-trifluorobutanamido)methyl)imidazo[1,2-a]pyrimidin-2-yl)(4,4-difluorocyclohexyl)methyl)-4-methyl-1,2,5-oxadiazole-3-carboxamide], the IC50 (as a rule, the concentration at which inhibition is half-maximal) in experiment [1] (Homo sapiens, Keratinocyte) stood at 520 nM; in experiment [2] it was 130 nM.
Turning to `CC(C)n1nccc1C(=O)N[C@H](c1cn2ccc(C(NC(=O)CCC(F)(F)F)C3CC3)nc2n1)C1CCC(F)(F)CC1` (single isomer, unassigned) [Example 47, N—((S)-(7-((R*)-Cyclopropyl(4,4,4-trifluorobutanamido)methyl)imidazo[1,2-a]pyrimidin-2-yl)(4,4-difluorocyclohexyl)methyl)-1-isopropyl-1H-pyrazole-5-carboxamide], the IC50 in experiment [1] is 120 nM; in experiment [2], 410 nM.
As for `Cc1nonc1C(=O)N[C@H](c1cn2ccc([C@H](NC(=O)C[C@H]3C[C@H](F)C3)C3CC3)nc2n1)C1CCC(F)(F)CC1` [Example 61, N—((S)-(7-((R)-Cyclopropyl(2-((1r,3S)-3-fluorocyclobutyl)acetamido)methyl)imidazo[1,2-a]pyrimidin-2-yl)(4,4-difluorocyclohexyl)methyl)-4-methyl-1,2,5-oxadiazole-3-carboxamide], the IC50 in experiment [1] (Homo sapiens, Keratinocyte) was determined as 2300 nM; in experiment [2], 460 nM.
On the same counts, the results for `O=C(CC1CC(F)(F)C1)N[C@@H](c1ccn2cc([C@@H](NC(=O)c3ccnc(CC(F)(F)F)c3)C3CCC(F)(F)CC3)nc2n1)C1CC1` [Example 25, N—((S)-(7-((R)-Cyclopropyl(2-(3,3-difluorocyclobutyl)acetamido)methyl)imidazo[1,2-a]pyrimidin-2-yl)(4,4-difluorocyclohexyl)methyl)-2-(2,2,2-trifluoroethyl)isonicotinamide] are 210 nM and 310 nM.
As for `CC(CC(=O)N[C@H](c1ccn2cc([C@@H](NC(=O)c3conc3CCC(F)(F)F)C3CCC(F)(F)CC3)nc2n1)C1CC1)C(F)(F)F` (single isomer, unassigned) [Example 8, N—((S)-(7-((S)-Cyclopropyl((R*)-4,4,4-trifluoro-3-methylbutanamido)methyl)imidazo[1,2-a]pyrimidin-2-yl)(4,4-difluorocyclohexyl)methyl)-3-(3,3,3-trifluoropropyl)isoxazole-4-carboxamide], the IC50 came out at 6000 nM in experiment [1] and 1100 nM in experiment [2].
Turning to `CC(C)n1ncnc1C(=O)N[C@H](c1cn2ccc([C@H](NC(=O)CC(C)C(F)(F)F)C3CC3)nc2n1)C1CCC(F)(F)CC1` (single isomer, unassigned) [Example 17, N—((S)-(7-((R)-Cyclopropyl((S*)-4,4,4-trifluoro-3-methylbutanamido)methyl)imidazo[1,2-a]pyrimidin-2-yl)(4,4-difluorocyclohexyl)methyl)-1-isopropyl-1H-1,2,4-triazole-5-carboxamide], the IC50 in experiment [1] (Homo sapiens, Keratinocyte) worked out at 1100 nM; in experiment [2] it was 220 nM.
In the case of `O=C(CC1CC1(F)F)N[C@@H](c1ccn2cc([C@@H](NC(=O)c3conc3C(F)(F)F)C3CCC(F)(F)CC3)nc2n1)C1CC1` (single isomer, unassigned) [Example 58, N—((S)-(7-((R)-Cyclopropyl(2-((R*)-2,2-difluorocyclopropyl)acetamido)methyl)imidazo[1,2-a]pyrimidin-2-yl)(4,4-difluorocyclohexyl)methyl)-3-(trifluoromethyl)isoxazole-4-carboxamide], the values for the IC50 in experiment [1] and in experiment [2] were 2200 nM and 340 nM, respectively.
Consider `Cc1c(C(=O)N[C@H](c2cn3ccc(C(NC(=O)CCC(F)(F)F)C4CC4)nc3n2)C2CCC(F)(F)CC2)cnn1CCC(F)(F)F` (single isomer, unassigned) [Example 38, N—((S)-(7-((S*)-Cyclopropyl(4,4,4-trifluorobutanamido)methyl)imidazo[1,2-a]pyrimidin-2-yl)(4,4-difluorocyclohexyl)methyl)-5-methyl-1-(3,3,3-trifluoropropyl)-1H-pyrazole-4-carboxamide], for which the values for the IC50 in experiment [1] and in experiment [2] were 930 nM and 890 nM, respectively.
Regarding `O=C(CCC(F)(F)F)NC(c1ccn2cc([C@@H](NC(=O)c3cnn(CCC(F)(F)F)c3)C3CCC(F)(F)CC3)nc2n1)C1CC1` (single isomer, unassigned) [Example 49, N—((S)-(7-((S*)-Cyclopropyl(4,4,4-trifluorobutanamido)methyl)imidazo[1,2-a]pyrimidin-2-yl)(4,4-difluorocyclohexyl)methyl)-1-(3,3,3-trifluoropropyl)-1H-pyrazole-4-carboxamide], the IC50 worked out at 740 nM in experiment [1] (Homo sapiens, Keratinocyte) and 500 nM in experiment [2].
As to `CC(CC(=O)N[C@H](c1ccn2cc([C@@H](NC(=O)c3conc3C3CC3)C3CCC(F)(F)CC3)nc2n1)C1CC1)C(F)(F)F` (single isomer, unassigned) [Example 10, 3-Cyclopropyl-N—((S)-(7-((S)-cyclopropyl((R*)-4,4,4-trifluoro-3-methylbutanamido)methyl)imidazo[1,2-a]pyrimidin-2-yl)(4,4-difluorocyclohexyl)methyl)isoxazole-4-carboxamide], the IC50 in experiment [1] was 5800 nM; in experiment [2], 4100 nM.
As for `O=C(CC1CC(F)(F)C1)N[C@H](c1ccn2cc([C@@H](NC(=O)c3conc3C3CC3)C3CCC(F)(F)CC3)nc2n1)C1CC1` [Example 27, 3-Cyclopropyl-N—((S)-(7-((S)-cyclopropyl(2-(3,3-difluorocyclobutyl)acetamido)methyl)imidazo[1,2-a]pyrimidin-2-yl)(4,4-difluorocyclohexyl)methyl)isoxazole-4-carboxamide], the IC50 in experiment [1] (Homo sapiens, Keratinocyte) amounted to 2600 nM; in experiment [2] it was 3800 nM.
`O=C(CCC(F)(F)F)NC(c1ccn2cc([C@@H](NC(=O)c3cnnn3CCC(F)(F)F)C3CCC(F)(F)CC3)nc2n1)C1CC1` (single isomer, unassigned) [Example 1, N—((S)-(7-((R*)-Cyclopropyl(4,4,4-trifluorobutanamido)methyl)imidazo[1,2-a]pyrimidin-2-yl)(4,4-difluorocyclohexyl)methyl)-1-(3,3,3-trifluoropropyl)-1H-1,2,3-triazole-5-carboxamide]: the IC50 in experiment [1] was found to be 390 nM; in experiment [2], 290 nM.
With `CC(CC(=O)N[C@@H](c1ccn2cc([C@@H](NC(=O)[C@H]3C[C@@H]3C(F)(F)F)C3CCC(F)(F)CC3)nc2n1)C1CC1)C(F)(F)F` (single isomer, unassigned) [Example 6], the IC50 in experiment [1] (Homo sapiens, Keratinocyte) is 2100 nM; in experiment [2], 2700 nM.
The matching figures for `O=C(CCC(F)(F)F)N[C@H](c1ccn2cc([C@@H](NC(=O)c3ncnn3CC3CC3)C3CCC(F)(F)CC3)nc2n1)C1CC1` [Example 33, N—((S)-(7-((S)-Cyclopropyl(4,4,4-trifluorobutanamido)methyl)imidazo[1,2-a]pyrimidin-2-yl)(4,4-difluorocyclohexyl)methyl)-1-(cyclopropylmethyl)-1H-1,2,4-triazole-5-carboxamide]: more than 20000 nM and 8700 nM.

The record behind these values is US12559496B2, “Imidazopyrimidines as modulators of IL-17” (Janssen Pharmaceutica NV, priority 2020, dated 2026).
